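Method: 48-hour compound exposure of cells in 96-well plates, five concentrations, linear interpolation of endpoints. GI50 = concentration required for 50% inhibition of growth.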 Activity calls are given as the source filed them. Rule as the data show it: active = GI50 up to about 1.1 µM and inactive = higher.
Columns and labels:
Assay in all cases: NCI tumour cell line growth inhibition, 48 h
SK-OV-3 = system: SK-OV-3
EKVX = system: EKVX
M14 = system: M14
UACC-257 = system: UACC-257
RPMI-8226 = system: RPMI-8226
RXF 631 = system: RXF 631
A498 = system: A498
LXFL 529 = system: LXFL 529
KM12 = system: KM12
786-0 = system: 786-0
NCI-H226 = system: NCI-H226
SF-295 = system: SF-295
OVCAR-8 = system: OVCAR-8
DMS-273 = system: DMS-273
SNB-75 = system: SNB-75
HOP-92 = system: HOP-92
U-251 = system: U-251
SK-MEL-5 = system: SK-MEL-5
K562 = system: K562
SNB-78 = system: SNB-78
OVCAR-5 = system: OVCAR-5
SF-539 = system: SF-539
ACHN = system: ACHN
SNB-19 = system: SNB-19
KM-20L2 = system: KM-20L2
IGROV-1 = system: IGROV-1
HCT-15 = system: HCT-15
RXF 393 = system: RXF 393
NCI-H522 = system: NCI-H522
NCI-H23 = system: NCI-H23
CCRF-CEM = system: CCRF-CEM
SN12C = system: SN12C
MOLT-4 = system: MOLT-4
HL-60 = system: HL-60
COLO 205 = system: COLO 205
OVCAR-4 = system: OVCAR-4
CAKI-1 = system: CAKI-1
SK-MEL-2 = system: SK-MEL-2
HCT-116 = system: HCT-116
TK-10 = system: TK-10
NCI-H460 = system: NCI-H460
HT-29 = system: HT-29
XF498 = system: XF498
UO-31 = system: UO-31
LOX IMVI = system: LOX IMVI
A549 = system: A549
M19-MEL = system: M19-MEL
DLD-1 = system: DLD-1
HOP-62 = system: HOP-62
HCC 2998 = system: HCC 2998
SR = system: SR
UACC-62 = system: UACC-62
SW-620 = system: SW-620

In the case of COC(=O)/C(=C/c1ccc(OC)cc1)C(C(=O)O)=C1CCCC1, the GI50 (SK-OV-3) is reported as > 100 µM (inactive), the GI50 (EKVX) is reported as > 100 µM (inactive) and the GI50 (M14) is reported as > 100 µM (inactive). The GI50 (UACC-257) was > 100 µM (inactive), the GI50 (RPMI-8226) was > 100 µM (inactive) and the GI50 (RXF 631) was > 100 µM (inactive). For the same compound, the GI50 (A498) was > 100 µM (inactive), the GI50 (LXFL 529) was > 100 µM (inactive) and the GI50 (KM12) was > 100 µM (inactive). For the same compound, the GI50 (786-0) was > 100 µM (inactive), the GI50 (NCI-H226) was > 100 µM (inactive) and the GI50 (SF-295) was > 100 µM (inactive). For the same compound, the GI50 (OVCAR-8) was > 100 µM (inactive), the GI50 (DMS-273) was > 100 µM (inactive) and the GI50 (SNB-75) was > 100 µM (inactive). The GI50 (HOP-92) was > 100 µM (inactive), the GI50 (U-251) was > 100 µM (inactive) and the GI50 (SK-MEL-5) was > 100 µM (inactive). For the same compound, the GI50 (K562) was > 100 µM (inactive), the GI50 (SNB-78) was > 100 µM (inactive) and the GI50 (OVCAR-5) was > 100 µM (inactive). The GI50 (SF-539) was > 100 µM (inactive), the GI50 (ACHN) was > 100 µM (inactive) and the GI50 (SNB-19) was > 100 µM (inactive). The GI50 (KM-20L2) was > 100 µM (inactive), the GI50 (IGROV-1) was > 100 µM (inactive) and the GI50 (HCT-15) was over 100 µM. The GI50 (RXF 393) was > 100 µM (inactive), the GI50 (NCI-H522) was > 100 µM (inactive) and the GI50 (NCI-H23) was > 100 µM (inactive). The GI50 (CCRF-CEM) was > 100 µM (inactive), the GI50 (SN12C) was > 100 µM (inactive) and the GI50 (MOLT-4) was > 100 µM (inactive). For the same compound, the GI50 (HL-60) was > 100 µM (inactive), the GI50 (COLO 205) was > 100 µM (inactive) and the GI50 (OVCAR-4) was > 100 µM (inactive). The GI50 (CAKI-1) was > 100 µM (inactive), the GI50 (SK-MEL-2) was > 100 µM (inactive) and the GI50 (HCT-116) was > 100 µM (inactive). For the same compound, the GI50 (TK-10) was > 100 µM (inactive), the GI50 (NCI-H460) was > 100 µM (inactive) and the GI50 (HT-29) was > 100 µM (inactive). For the same compound, the GI50 (XF498) was 11.7 µM (inactive), the GI50 (UO-31) was > 100 µM (inactive) and the GI50 (LOX IMVI) was > 100 µM (inactive). For the same compound, the GI50 (A549) was > 100 µM (inactive), the GI50 (M19-MEL) was > 100 µM (inactive) and the GI50 (DLD-1) was > 100 µM (inactive). For the same compound, the GI50 (HOP-62) was > 100 µM (inactive), the GI50 (HCC 2998) was > 100 µM (inactive) and the GI50 (SR) was > 100 µM (inactive). The GI50 (UACC-62) was > 100 µM (inactive) and the GI50 (SW-620) was > 100 µM (inactive).

From ChEMBL document CHEMBL1201862, “PubChem BioAssay data set” (2004)
